Data set [1] is described as follows: Approximate solubility determined by visual observation. It is filed as physicochemical. Conditions: organic solvent or mixture. Here is the method:
Approximate solubility was determined by visual observation and shown in Form C Table 8.
Approximate solubility was determined by visual observation and shown in Form F Table 12.

Data set [2] in a line: Dynamic vapor sorption (DVS) analysis. It is filed as physicochemical.

Like-named read-outs stand apart in the source and are kept apart here. Bounds are passed on as bounds.

With `N#C[C@H](C[C@@H]1CCCNC1=O)NC(=O)[C@H](CC1CC1)NC(=O)c1cc2cccc(Cl)c2[nH]1` [Form F, 7-chloro-N—((S)-1-(((S)-1-cyano-2-((S)-2-oxopiperidin-3-yl)ethyl)amino)-3-cyclopropyl-1-oxopropan-2-yl)-1H-indole-2-carboxamide, hydrate], the solubility in data set [1] (acetone, solvent Acetone, read-out: Solubility of Form F) is below 2 mg/mL; in data set [1] (ethanol, solvent Ethanol, read-out: Solubility of Form F), above 7 mg/mL; in data set [1] (methanol, solvent Methanol, read-out: Solubility of Form F) it was above 11 mg/mL; in data set [1] (methanol/dichloromethane (1/1), solvent Methanol/Dichloromethane (1/1), read-out: Solubility of Form F), above 47 mg/mL; in data set [1] (methanol/dichloromethane (1/2), solvent Methanol/Dichloromethane (1/2), read-out: Solubility of Form F), above 58 mg/mL; in data set [1] (methanol/dichloromethane (2/1), solvent Methanol/Dichloromethane (2/1), read-out: Solubility of Form F), above 19 mg/mL. Further, the DVS reversable gain entry in data set [2] (from about 0 to about 90% relative humidity (RH), no hysteresis) is on record as “about 4 wt. %”.

For `N#C[C@H](C[C@@H]1CCCNC1=O)NC(=O)[C@H](CC1CC1)NC(=O)c1cc2cccc(Cl)c2[nH]1` [Form C, 7-chloro-N—((S)-1-(((S)-1-cyano-2-((S)-2-oxopiperidin-3-yl)ethyl)amino)-3-cyclopropyl-1-oxopropan-2-yl)-1H-indole-2-carboxamide, anhydrate], the solubility in data set [1] (acetone, solvent Acetone, read-out: Solubility of Form C) is below 2 mg/mL; in data set [1] (ethanol, solvent Ethanol, read-out: Solubility of Form C), above 2 mg/mL; in data set [1] (methanol, solvent Methanol, read-out: Solubility of Form C), above 9 mg/mL; in data set [1] (methanol/dichloromethane (1/1), solvent Methanol/Dichloromethane (1/1), read-out: Solubility of Form C), above 23 mg/mL; in data set [1] (methanol/dichloromethane (1/2), solvent Methanol/Dichloromethane (1/2), read-out: Solubility of Form C), above 28 mg/mL; in data set [1] (methanol/dichloromethane (2/1), solvent Methanol/Dichloromethane (2/1), read-out: Solubility of Form C), above 16 mg/mL. For the same compound, the “DVS reversible total mass change” value in data set [2] (from about 90% to about 0% RH) is recorded as “about 0.7%”. Moreover, the DVS gain result in data set [2] (to about 90% relative humidity (RH) at 25° C.) is “about 0.5%”.
